Experimental data: US12350246B2 (Cancer Prevention Pharmaceuticals, Inc., priority 2015, dated 2025)
Structures can show the parent of a compound that is named as a salt.

Assays:
COX = details: cited from earlier work
[1] = Drug excipient compatibility: XRPD; type: physicochemical; details: 40° C./75% RH, four weeks
Method: A non-cGMP drug excipient compatibility study for eflornithine HCl/sulindac combination tablet was conducted. Appearance, HPLC Assay and XRPD properties were evaluated using a series of samples. The excipients that were tested included PVP, HPMC, lactose, EXPLOTAB™, Ac-Di-Sol®, PROSOLV®, STARCH 1500®, and OPADRY® Yellow. […] Total mass of most samples was approximately 750 mg. Preparation involved weigh off of components into 20cc scintillation vials, closed and vortexed for approximately 30 seconds. The samples were then stored in a 40° C./75% RH stability chamber for four weeks. Lids on the vials were loosely secured and were protected from light while stored in the chamber. XRPD analysis was conducted on a Bruker AXS D8 Advance system with a Bragg-Brentano configuration using the CuKα radiation. Samples were analyzed at room temperature using the following parameters: 40 kV, 40 mA, 1° divergence and antiscatter slits, a method measuring in continuous mode from 2-40°2Θ with a 0.05° step and 1 second/step time. Between 3 and 25 mg of sample was analyzed using a rotating, top-filled steel sample holder in a nine-position auto-sampler accessory. The system was calibrated using traceable standards.

[2] = Drug excipient compatibility: appearance and HPLC assay; type: physicochemical; details: 40° C./75% RH, four weeks
Method: A non-cGMP drug excipient compatibility study for eflornithine HCl/sulindac combination tablet was conducted. Appearance, HPLC Assay and XRPD properties were evaluated using a series of samples. The excipients that were tested included PVP, HPMC, lactose, EXPLOTAB™, Ac-Di-Sol®, PROSOLV®, STARCH 1500®, and OPADRY® Yellow. […] Total mass of most samples was approximately 750 mg. Preparation involved weigh off of components into 20cc scintillation vials, closed and vortexed for approximately 30 seconds. The samples were then stored in a 40° C./75% RH stability chamber for four weeks. Lids on the vials were loosely secured and were protected from light while stored in the chamber. Appearance observations were conducted by visual examination of the vials prepared for HPLC analysis. […] Excipient compatibility samples were analyzed using a method capable of detecting both actives, cflornithine and sulindac (FIG. 4A). The method employs a gradient reverse phase HPLC with Ultraviolet (UV) detection at 195 nm.

[3] = test system: prostoglandin E2 (PGE2) levels in flat mucosa; details: 300 mg/day, one month; cited from earlier work
[4] = test system: tumors harboring Ki-ras mutations; details: reduced from 90%; cited from earlier work
[5] = in vivo; cited from earlier work
[6] = cited from earlier work
tumor putrescine levels = details: eflornithine infusion, without suppressing peripheral platelet counts; cited from earlier work
[7] = in vivo; cited from earlier work; remark: listed apart in the source

In the case of `CC1=C(CC(=O)O)c2cc(F)ccc2/C1=C\c1ccc(S(C)(=O)=O)cc1` [Sulindac sulfone], the COX-inhibitory activity (COX) is listed as “lacks COX-inhibitory activity”.

In the case of `NCCCC(N)(C(=O)O)C(F)F` (stereo not drawn) [eflornithine HCl], the “Compatibility with excipients (XRPD)” value [1] was “compatible with the potential excipients” and the “Compatibility with excipients (appearance, HPLC assay)” value [2] was “compatible with the potential excipients”.

For `CC(C)Cc1ccc(C(C)C(=O)O)cc1` (stereo not drawn) [ibuprofen], the “PGE2 levels in flat mucosa” value [3] is given as “significant decrease”.

In the case of `CN1C(C(=O)Nc2ccccn2)=C(O)c2ccccc2S1(=O)=O` [piroxicam, 4-hydroxy-2-methyl-N-2-pyridyl-2H-1,2-benzothiazine-3-carboxamide 1,1-dioxide], the “Tumors harboring Ki-ras mutations” value [4] is listed as 25%.

In the case of `CC1=C(CC(=O)O)c2cc(F)ccc2/C1=C\c1ccc([S+](C)[O-])cc1` (stereo not drawn) [sulindac, (Z)-5-fluoro-2-methyl-1-((4-(methylsulfinyl)phenyl)methylene)-1H-indene-3-acetic acid], the “Mild gastrointestinal effects, patients affected” value [5] is given as about 20%, the “Skin rash and pruritus, patients affected” value [5] is given as 5% and the “Compatibility with excipients (XRPD)” value [1] is given as “compatible with the potential excipients”. For the same compound, the “Compatibility with excipients (appearance, HPLC assay)” value [2] was “compatible with the potential excipients”, the “Fraction of the drug absorbed” value ([6]; after oral administration) was “about 90%” and the “Time to peak plasma levels” value ([6]; fasting patients) was “about 2 hours”.

For `NCCCC(N)(C(=O)O)C(F)F` (stereo not drawn) [eflornithine, 2,5-diamino-2-(difluoromethyl)pentanoic acid], the “Tumors harboring Ki-ras mutations” value [4] is given as 36% and the “Decrease in tumor putrescine levels” value (tumor putrescine levels) is given as 90%.

For `Cc1ccc(-c2cc(C(F)(F)F)nn2-c2ccc(S(N)(=O)=O)cc2)cc1` [celecoxib, 4-[5-(4-Methylphenyl)-3-(trifluoromethyl)pyrazol-1-yl]benzenesulfonamide], the “Increase in rates of heart and blood vessel disease” value [7] is given as 30% and the “Risks of gastrointestinal side effects” value [7] is given as “greater than 80%”.
